# Measured values published in patent publication US5175159A, “3-substituted-1,4-benzodiazepines as oxytocin antagonists” (Merck & Co., Inc., priority 1990, dated 1992).
# Target: T1, oxytocin receptor (Rattus norvegicus, UniProt P70536)
# T1 construct: crude membrane preparation of rat uterus as the source of oxytocin receptors; from tissue; host or cells: rat uterus, crude membrane preparation
# T1 sequence (P70536 1-388): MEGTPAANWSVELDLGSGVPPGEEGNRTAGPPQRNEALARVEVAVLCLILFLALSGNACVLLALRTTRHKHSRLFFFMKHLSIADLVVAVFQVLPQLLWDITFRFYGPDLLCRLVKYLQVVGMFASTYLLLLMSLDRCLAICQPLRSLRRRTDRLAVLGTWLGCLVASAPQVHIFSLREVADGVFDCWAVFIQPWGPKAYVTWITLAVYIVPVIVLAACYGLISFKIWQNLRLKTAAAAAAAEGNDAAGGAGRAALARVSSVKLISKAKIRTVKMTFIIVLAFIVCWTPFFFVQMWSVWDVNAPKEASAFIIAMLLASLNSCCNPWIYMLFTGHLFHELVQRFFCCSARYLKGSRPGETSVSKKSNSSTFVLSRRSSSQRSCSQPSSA
# Assay: [^3H]Oxytocin Binding Assay (crude membrane preparation of rat uterus)
# Settings: not given
# Text: The biological activities of the compounds of Formula I have been evaluated using a[^3 H]oxytocin binding assay.
# [^3 H]Oxytocin Binding Assay
# Oxytocin receptors have been identified in mammalian uterine tissue through the use of in vitro radioligand binding assays. These receptor binding sites mediate the contractile response of the uterine myometrium to oxytocin. The present radioligand binding procedure has been adapted from the methods of Soloff, M. S. and Grzonka, Z., Endocrinology 119: 1564-1569 (1986) and Fuchs, A-R., Fuchs, F., and Soloff, M. S., J. Clinical Endocrinology and Metabolism 60: 37-41 (1985) and is utilized here to measure the relative affinity of test compounds for the oxytocin receptor labeled by [^3 H]oxytocin. The assay uses a crude membrane preparation of rat uterus as the source of oxytocin receptors. The IC50 values (concentration of test compound to inhibit [^3 H]oxytocin binding by 50%) are determined by incubating uterine tissue with [^3 H]oxytocin in the presence or absence of varying concentrations of compound.
row,Compound,IC50 [nM]
1,"CN1C(=O)C(NS(=O)(=O)C[C@]23CC[C@H](CC2=O)C3(C)C)N=C(c2ccccc2)c2ccccc21 (stereo partly drawn) [Example 8, (1S)-(1.ALPHA.(RS),4.ALPHA.))-N-(2,3-DIHYDRO-1-METHYL-2-OXO-5-PHENYL-1H-1,4-BENZODIAZEPIN-3-YL)-7,7-DIMETHYL-2-OXO-BICYCLO(2.2.1)HEPTANE-1-METHANESULFONAMIDE]",4600
2,"CN1C(=O)[C@H](NS(=O)(=O)C[C@@]23CC[C@@H](CC2=O)C3(C)C)N=C(c2ccccc2)c2ccccc21 [Example 15, (1R-(1.ALPHA.(S*),4.ALPHA.))-N-(2,3-DIHYDRO-1-METHYL-2-OXO-5-PHENYL-1H-1,4- BENZODIAZEPIN-3-YL)-7,7-DIMETHYL-2-OXO-BICYCLO(2.2.1)HEPTANE-1-METHANESULFONAMIDE]",1400
3,"CN1C(=O)C(NC(=O)C23CC4CC(CC(C4)C2)C3)N=C(c2ccccc2)c2ccccc21 (racemic) [Example 4, (+/-)-N-(2,3-DIHYDRO-1-METHYL-2-OXO-5-PHENYL-1H-1,4-BENZODIAZEPIN-3-YL)-TRICYCLO(3.3.1.1(3,7))DECANE-1-CARBOXAMIDE]",13800
4,"CN1C(=O)C(NC(=O)CC23CC4CC(CC(C)(C4)C2)C3)N=C(c2ccccc2)c2ccccc21 (racemic) [Example 7, (+/-)-N-(2,3-DIHYDRO-1-METHYL-2-OXO-5-PHENYL-1H-1,4-BENZODIAZEPIN-3-YL)-3-METHYLTRICYCLO(3.3.1.1(3,7))DECANE-1-ACETAMIDE]",4700
5,"CN1C(=O)[C@H](NC(=O)NC23CC4CC(CC(C4)C2)C3)N=C(c2ccccc2)c2ccccc21 (single isomer, unassigned) [Example 3]",1690
6,"CN1C(=O)C(NC(=O)NCC23CC4CC(CC(C4)C2)C3)N=C(c2ccccc2)c2ccccc21 (racemic) [Example 6, (+/-)-N-(2,3-DIHYDRO-1-METHYL-2-OXO-5-PHENYL-1H-1,4-BENZODIAZEPIN-3-YL)-N'- TRICYCLO(3.3.1.1(3,7))DEC-1-YL-METHYL)-UREA]",2700
7,"CN1C(=O)C(NC(=O)NC2C3CC4CC(C3)CC2C4)N=C(c2ccccc2)c2ccccc21 (single isomer, unassigned; (+)) [Example 2, (+)-N-(2,3-DIHYDRO-1-METHYL-2-OXO-5-PHENYL-1H-1,4-BENZODIAZEPIN-3-YL)-N'-TRICYCLO(3.3.1.1(3,7))DEC-2-YL-UREA]",1600
8,"CN1C(=O)C(NC(=O)CC23CC4CC(CC(C4)C2)C3)N=C(c2ccccc2)c2ccccc21 (racemic) [Example 5, (+/-)-N-(2,3-DIHYDRO-1-METHYL-2-OXO-5-PHENYL-1H-1,4-BENZODIAZEPIN-3-YL)-TRICYCLO(3.3.1.1(3,7))DECANE-1-ACETAMIDE)]",2800
9,"CN1C(=O)[C@@H](NS(=O)(=O)C[C@@]23CC[C@@H](CC2O)C3(C)C)N=C(c2ccccc2)c2ccccc21 (stereo partly drawn) [Example 17, N-(2,3-DIHYDRO-1-METHYL-2-OXO-5-PHENYL-1H-1,4-BENZODIAZEPIN-3-YL)-2-HYDROXY-7,7-DIMETHYL-BICYCLO(2.2.1) HEPTANE-1-METHANESULFONAMIDE]",2500
10,"CN1C(=O)C(NS(=O)(=O)C[C@@]23CC[C@@H](CC2=O)C3(C)C)N=C(c2ccccc2)c2ccccc21 (stereo partly drawn) [Example 9, (1R-(1.ALPHA.(RS),4.ALPHA.))-N-(2,3-DIHYDRO-1-METHYL-2-OXO-5-PHENYL-1H-1,4- BENZODIAZEPIN-3-YL)-7,7-DIMETHYL-2-OXO-BICYCLO(2.2.1)HEPTANE-1-METHANESULFONAMIDE]",3600
11,"CN1C(=O)[C@H](NS(=O)(=O)C[C@@]23CC[C@@H](CC2O)C3(C)C)N=C(c2ccccc2)c2ccccc21 (single isomer, unassigned) [Example 16A, N-(2,3-DIHYDRO-1-METHYL-2-OXO-5-PHENYL-1H-1,4-BENZODIAZEPIN-3-YL)-2-HYDROXY-7,7-DIMETHYL-BICYCLO(2.2.1) HEPTANE-1-METHANESULFONAMIDE, ISOMER A AND ISOMER B]",1400
12,"CN1C(=O)C(NC(=O)NC2C3CC4CC(C3)CC2C4)N=C(c2ccccc2)c2ccccc21 (racemic) [Example 1, (+/-)-N-(2,3-DIHYDRO-1-METHYL-2-OXO-5-PHENYL-1H-1,4-BENZODIAZEPIN-3-YL)-N'- TRICYCLO(3.3.1.1(3,7))DEC-2-YL-UREA]",3900

# Same assay, conditions: [^3H]oxytocin binding, rat uterus membranes; @ 10 μM
row,Compound,% inhibition @ μM conc. (10 μM) [%]
1,"CN1C(=O)[C@@H](NC(=O)CC2C3CCC(C)(C2O)C3(C)C)N=C(c2ccccc2)c2ccccc21 (single isomer, unassigned) [Example 22B]",41

# Same assay, conditions: [^3H]oxytocin binding, rat uterus membranes; @ 10 μM; read-out: % inhibition @ μM conc. (10 μM)
row,Compound,inhibition at 10 µM [%]
1,"CN1C(=O)CN(C(=O)NCC23CC4CC(CC(C4)C2)C3)C(c2ccccc2)c2ccccc21 (racemic) [Example 12, (+/-)-1,2,3,5-TETRAHYDRO-1-METHYL-2-OXO-5-PHENYL-N-(TRICYCLO(3.3.1.1.(3,7))DEC-1-YLMETHYL)-4H-1,4-BENZODIAZEPINE-4-CARBOXAMIDE]",66
2,"CN1C(=O)CN(C(=O)NC2C3CC4CC(C3)CC2C4)C(c2ccccc2)c2ccccc21 (racemic) [Example 13, (+/-)-1,2,3,5-TETRAHYDRO-1-METHYL-2-OXO-5-PHENYL-N-TRICYCLO(3.3.1.1(3,7))DEC-2-YL-4H-1,4-BENZODIAZEPINE-4-CARBOXAMIDE]",48

# Same assay, conditions: read-out: % inhibition @ μM conc. (1 μM), [^3H]oxytocin binding, rat uterus membranes; @ 1 μM
row,Compound,inhibition at 1 µM [%]
1,"CN1C(=O)[C@H](NS(=O)(=O)C[C@]23CC[C@H](CC2=O)C3(C)C)N=C(c2ccccc2)c2ccccc21 [Example 20, (1S-(1.ALPHA.(S*),4.ALPHA.))-N-(2,3-DIHYDRO-1-METHYL-2-OXO-5-PHENYL-1H-1,4- BENZODIAZEPIN-3-YL)-7,7-DIMETHYL-2-OXO-BICYCLO(2.2.1)HEPTANE-1-METHANESULFONAMIDE]",35
2,"CN1C(=O)[C@H](NC(=O)C2C(=O)C3(C)CCC2C3(C)C)N=C(c2ccccc2)c2ccccc21 (stereo partly drawn) [Example 23, [3(R)-N-(2,3-DIHYDRO-1-METHYL-2-OXO-5-PHENYL-1H-1,4-BENZODIAZEPIN-3-YL)]-2- OXO-1,7,7-TRIMETHYLBICYCLO(2.2.1)HEPTANE-3-CARBOXAMIDE]",35
3,"CN1C(=O)[C@H](NC(=O)CC2C(=O)C3(C)CCC2C3(C)C)N=C(c2ccccc2)c2ccccc21 (single isomer, unassigned) [Example 19]",39

# Same assay, conditions: read-out: % inhibition @ μM conc. (10 μM), [^3H]oxytocin binding, rat uterus membranes; @ 10 μM
row,Compound,inhibition at 10 µM [%]
1,"CN1C(=O)[C@@H](NS(=O)(=O)C[C@]23CC[C@H](CC2=O)C3(C)C)N=C(c2ccccc2)c2ccccc21 [Example 21, (1S-(1.ALPHA.(R*), 4.ALPHA.))-N-(2,3-DIHYDRO-1-METHYL-2-OXO-5-PHENYL-1H-1,4-BENZODIAZEPIN-3-YL)-7,7-DIMETHYL-2-OXO-BICYCLO(2.2.1)HEPTANE-1-METHANESULFONAMIDE]",15
2,"CN1C(=O)[C@@H](NC(=O)CC2C3CCC(C)(C2O)C3(C)C)N=C(c2ccccc2)c2ccccc21 (single isomer, unassigned) [Example 22A]",50
3,"CN1C(=O)[C@H](NS(=O)(=O)C[C@]23CC[C@H](CC2=O)C3(C)C)N=C(c2ccccc2)c2ccccc21 [Example 20, (1S-(1.ALPHA.(S*),4.ALPHA.))-N-(2,3-DIHYDRO-1-METHYL-2-OXO-5-PHENYL-1H-1,4- BENZODIAZEPIN-3-YL)-7,7-DIMETHYL-2-OXO-BICYCLO(2.2.1)HEPTANE-1-METHANESULFONAMIDE]",80
4,"CN1C(=O)[C@@H](NC(=O)CC2C(=O)C3(C)CCC2C3(C)C)N=C(c2ccccc2)c2ccccc21 (single isomer, unassigned) [Example 18]",39
5,"CN1C(=O)[C@H](NC(=O)C2C(=O)C3(C)CCC2C3(C)C)N=C(c2ccccc2)c2ccccc21 (stereo partly drawn) [Example 23, [3(R)-N-(2,3-DIHYDRO-1-METHYL-2-OXO-5-PHENYL-1H-1,4-BENZODIAZEPIN-3-YL)]-2- OXO-1,7,7-TRIMETHYLBICYCLO(2.2.1)HEPTANE-3-CARBOXAMIDE]",85
6,"CCOC(=O)[C@@H](NC(=O)NC1N=C(c2ccccc2)c2ccccc2N(C)C1=O)c1ccccc1 (single isomer, unassigned) [Example 11, ALPHA.-((((2,3-DIHYDRO-1-METHYL-2-OXO-5-PHENYL-1H-1,4-BENZODIAZEPIN-3-YL)AMINO)CARBONYL)AMINO)BEN[…] ETHYL ESTER, ALPHA ISOMER]",46
7,"CN1C(=O)[C@H](NC(=O)CC2C(=O)C3(C)CCC2C3(C)C)N=C(c2ccccc2)c2ccccc21 (single isomer, unassigned) [Example 19]",82
8,"CN1C(=O)[C@@H](NS(=O)(=O)C[C@@]23CC[C@@H](CC2=O)C3(C)C)N=C(c2ccccc2)c2ccccc21 [Example 14, (1R-(1.ALPHA.(R*),4.ALPHA.))-N-(2,3-DIHYDRO-1-METHYL-2-OXO-5-PHENYL-1H-1,4- BENZODIAZEPIN-3-YL)-7,7-DIMETHYL-2-OXO-BICYCLO(2.2.1)HEPTANE-1-METHANESULFONAMIDE]",52

# Same assay, conditions: read-out: [^3 H]OT(uterus) IC50; inhibition of [^3H]oxytocin binding, rat uterus membranes
row,Compound,IC50 [nM]
1,"CN1C(=O)C(NS(=O)(=O)CC23CCC(CC2O)C3(C)C)N=C(c2ccccc2)c2ccccc21 (single isomer, unassigned) [Example 16B, N-(2,3-DIHYDRO-1-METHYL-2-OXO-5-PHENYL-1H-1,4-BENZODIAZEPIN-3-YL)-2-HYDROXY-7,7-DIMETHYL-BICYCLO(2.2.1) HEPTANE-1-METHANESULFONAMIDE, ISOMER A AND ISOMER B]",1000
